This note sets out measurements from patent publication US20090137554A1, “1,4,5,6-TETRAHYDRO -PYRROLO[2,3-d]AZEPINES AND -IMIDAZO[4,5-d]AZEPINES AS MODULATORS OF NUCLEAR RECEPTOR ACTIVITY” (Wyeth, priority 2007, published 2009).

The target of this experiment is T1, Gal4/hFXR fusion protein (Homo sapiens, UniProt Q96RI1).
T1 sequence (Q96RI1 262-486 limits assumed): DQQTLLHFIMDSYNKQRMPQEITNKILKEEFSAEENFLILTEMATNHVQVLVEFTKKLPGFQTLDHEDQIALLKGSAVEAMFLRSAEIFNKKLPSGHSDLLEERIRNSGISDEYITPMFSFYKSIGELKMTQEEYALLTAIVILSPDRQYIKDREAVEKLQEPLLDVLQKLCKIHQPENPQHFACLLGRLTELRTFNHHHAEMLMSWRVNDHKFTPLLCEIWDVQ
Description: Gal4/hFXR fusion protein agonist activity in human 293 cells (luciferase reporter). To be noted: Human 293 stable clone 2 expressing Gal4/hFXR, 24 hours incubation. The experiment is classed as cell-based. As for the experimental part: Characterization of Compounds for Gal4/hFXR Fusion Protein Agonist Activity in Human 293 Cells
• 1. Compounds to be tested are prepared as 2× stocks in assay medium. • 2. […] The supernatant is removed and the cells are resuspended in 1 ml assay medium. The cells are counted and diluted in assay medium to 200,000 cells per ml. The cells are then plated at 10,000 cells per well in Culturplate-96 plates in 50 μL assay medium. The cells are incubated at 37° C. for approximately 1 hour. • 3. […] All assays include 1 uM GW4064 as a reference standard. • 4. Cells are incubated for 24 hours at 37° C.
• 5. The medium is removed, and the cells are lysed in 25 uL lysis buffer (Promega, E3971). • 6. The plates are analyzed for luciferase activity with luciferase assay reagent (Promega E1483). Plates are read on Victor^3V instrument using the protocol “Shuguang Luciferase assay” (dispense volume=100 uL, plate type=“Packard Viewplate”, measurement height=8 mm from bottom of plate, 5 second read per well).
• 1. For agonist single point screening, data are analyzed in Excel. Each compound is tested in triplicate. The fold stimulation of each compound is calculated as RLUcpd/RLUbkgd. • 2. Comparison to GW4064 is made by the equation (RLUcpd/RLUbkgd)/(RLUGW4064/RLUbkgd) • 3. For agonist potency determinations, statistical analysis of the data is performed using a customized Excel/SAS program.
Compound `CC(C)OC(=O)C1=CN(C(=O)c2ccc(F)c(F)c2)CC(C)(C)c2cc(C#N)[nH]c21` [Example 1, iso-Propyl 2-cyano-6-(3,4-difluorobenzoyl)-4,4-dimethyl-1,4,5,6-tetrahydropyrrolo[2,3-d]azepine-8-carboxylate] returned an EC50 of 5.3 nM.

`CC(C)OC(=O)C1=CN(C(=O)c2cccs2)CC(C)(C)c2cc(C#N)[nH]c21` [Example 7, iso-Propyl 2-cyano-4,4-dimethyl-6-(2-thienylcarbonyl)-1,4,5,6-tetrahydropyrrolo[2,3-d]azepine-8-carboxylate] returned an EC50 of 22 nM.

For `CC(C)OC(=O)C1=CN(C(=O)C2CCOCC2)CC(C)(C)c2cc(C#N)[nH]c21` [Example 9, iso-Propyl 2-cyano-4,4-dimethyl-6-(tetrahydro-2H-pyran-4-ylcarbonyl)-1,4,5,6-tetrahydropyrrolo[2,3-d]azepine-8-carboxylate], the response was half-maximal at 8.9 nM (EC50).

As to `CC(C)OC(=O)C1=CN(C(=O)c2ccc(F)c(F)c2)CC2(CCOCC2)c2cc(C#N)[nH]c21` [Example 10, iso-Propyl 2′-cyano-6′-(3,4-difluorobenzoyl)-2,3,5,5′,6,6′-hexahydro-1′H-spiro[pyran-4,4′-pyrrolo[2,3-d]azepine]-8′carboxylate], the midpoint of the response, the EC50, lay at 86 nM.

Turning to `CC(C)OC(=O)C1=CN(C(=O)c2cccc(C(F)(F)F)c2)CC(C)(C)c2cc(C#N)[nH]c21` [Example 8, iso-Propyl 2-cyano-4,4-dimethyl-6-[3-(trifluoromethyl)benzoyl]-1,4,5,6-tetrahydropyrrolo[2,3-d]azepine-8-carboxylate], the EC50 is 8 nM.
